The source of these data is patent publication US9133139B2, “Fluoroalkyl-1,4-benzodiazepinone compounds” (BRISTOL-MYERS SQUIBB COMPANY, priority 2012, dated 2015).

The subject of data set [1] is TALL-1. As to the kind of experiment: Human Tumor Xenograft Models in Mice, TALL-1. The class given is in vivo. Conditions: for Antitumor Activity in TALL-1 (LCK), QD dosing / Antitumor Activity in TALL-1 (LCK), BID dosing: oral; for Antitumor Activity in TALL-1 (LCK), QD dosing: TALL-1 xenograft in NOD-SCID mice; for antitumor activity with oral administration (PO): Human Tumor Xenograft Models in mice; for Antitumor Activity in TALL-1 (LCK), BID dosing: BID × 10, TALL-1 xenograft in NOD-SCID mice. As to the method: Human Tumor Xenograft Models in Mice
Mice were fed food and water ad libitum.
Preclinical Chemotherapy Trials
When death occurred, the day of death was recorded.
In Vivo Antitumor Activity
(In xenograft studies the graft and the host belong to different species.)

The subject of data set [2] is human Notch 3. As to the kind of experiment: Notch-CBF1 Transactivation Assay (luciferase reporter, transfected HeLa cells), Notch 3. The conditions noted are these: read-out: Notch 3 (IC50); HeLa cells transfected with truncated Notch 3 and CBF1 luciferase reporter, 18 hours incubation. The class given is cell-based. The source says:
(§1) Notch-CBF1 Transactivation Assay
(§2) The Notch-CBF1 (C-promoter binding factor I) cell based transactivation assay is based on the ability of the released Notch intracellular domain fragments (NICDs) to function as transcription factors in conjunction with CBF1 and other nuclear factors. Luciferase assays were used to measure the antagonism of Notch-CBF1 transcriptional activity. HeLa cervical cancer cells are transiently co-transfected with pCDNA3.1/Hygro plasmids containing truncated Notch 1, Notch 2, Notch 3, or Notch 4 receptors and a PGL3 luciferase reporter vector containing 4 copies of CBF1 binding site. The cells were then tested for Notch-CBF1 activity in the absence or presence of test compounds. HeLa cells, maintained in DMEM (high glucose with HEPES), 1× glutamine/penicillin/streptomycin and 10% Fetal Bovine serum, were transiently transfected in a T175 Flask (4.5×10^6 cells/flask) using the Monster Transfection Kit (Minis #MIR2906) according to manufacturers specifications. Table 2 denotes respective DNA quantity for the transfections.
(§3) Assay media (5 μL) containing test compounds in final concentrations ranging from 5 μM to 8.4×10^−5 μM (3 fold serial dilutions) were added to the cells and the cell plates were then incubated for 18 hours at 37° C. and 5% CO2. Control wells contained DMSO vehicle (total counts) or 0.5 μM of an in-house small molecule inhibitor (background counts). Duplicates were used for each sample. Luciferase activity was measured after a 20-minute incubation with 50 μl STEADY-GLO® luciferase reagents according to manufacturer's specifications (Promega, Cat. #E2550) and analyzed by Envision plate reader (PerkinElmer, Boston, Mass.).
(§4) The antagonist effect of compounds was expressed as 100×[1−(average sample−average background)/(average total−average background)] where sample is the luciferase activity in the presence of test compound, background is equal to the luciferase activity in the presence of the small molecule inhibitor control and the total is signal induced in DMSO wells.
(In general: A reporter such as luciferase makes a cellular process visible.)

Data set [3] is described as follows: Human metabolic stability half-life assay (liver microsomes). The class given is in vitro ADME. Conditions: pH 7.4, human liver microsomes, CYP-mediated (NADPH-dependent), 0.5 μM compound, 45-minute time course, read-out: HLM (t1/2, min). As to the method:
Metabolic Stability Half-Life Panel
Result Interpretation Guideline
Incubation with Liver Microsomes
Sample Analysis—Instrumentation
(Liver microsomes are a subcellular fraction often used to study metabolism.)

In data set [4] the test system is human Notch 1. Nature of the data set: Notch-CBF1 Transactivation Assay (luciferase reporter, transfected HeLa cells), Notch 1. The class given is cell-based. Conditions: read-out: Notch 1 (IC50); HeLa cells transfected with truncated Notch 1 and CBF1 luciferase reporter, 18 hours incubation.
Excerpt: as §1, §2, §3, §4

pIC50: −log10 of the molar value.

For `CN1C(=O)[C@@H](NC(=O)[C@H](CCC(F)(F)F)[C@@H](C(N)=O)c2ccccc2)N=C(c2ccccc2)c2ccccc21` [Example 1, (2R,3R)—N-((3S)-1-Methyl-2-oxo-5-phenyl-2,3-dihydro-1H-1,4-benzodiazepin-3-yl)-3-phenyl-2-(3,3,3-trifluoropropyl)succinamide], the “Antitumor Activity in TALL-1 (LCK), QD dosing” value in data set [1] (Dose 24 (unit not given)) is 3.5 LCK. In data set [1], the “antitumor activity with oral administration (PO)” value (“antitumor activity … (PO)” for short) is “showed antitumor activity”.

With `Cc1cccc2c1NC(=O)[C@@H](NC(=O)[C@H](CCC(F)(F)F)[C@@H](C(N)=O)c1ccccc1)N=C2c1cccc(F)c1` [Example 5, (2R,3R)—N1-((S)-5-(3-Fluorophenyl)-9-methyl-2-oxo-2,3-dihydro-1H-benzo[e][1,4]diazepin-3-yl)-3-phenyl-2-(3,3,3-trifluoropropyl)succinamide], in data set [2], the pIC50 (commonly the negative decadic logarithm of the IC50, by convention in mol/L) is 7.85. Also, the half-life at 0.5 μM in data set [3] was at least 30 min. For `NC(=O)[C@@H](c1cccnc1)[C@@H](CCC(F)(F)F)C(=O)N[C@H]1N=C(c2ccccc2)c2ccccc2NC1=O` [Example 10, (2R,3R)—N1-((S)-2-Oxo-5-phenyl-2,3-dihydro-1H-benzo[e][1,4]diazepin-3-yl)-3-(pyridin-3-yl)-2-(3,3,3-trifluoropropyl)succinamide], the pIC50 was 7.64 in data set [2] and 7.71 in data set [4]. For the compound `Cc1nocc1[C@H](C(N)=O)[C@@H](CCC(F)(F)F)C(=O)N[C@H]1N=C(c2ccccc2)c2ccccc2N(c2ccccn2)C1=O` [Example 11, (2R,3R)-3-(3-Methyl-4-isoxazolyl)-N-((3S)-2-oxo-5-phenyl-1-(2-pyridinyl)-2,3-dihydro-1H-1,4-benzodiazepin-3-yl)-2-(3,3,3-trifluoropropyl)succinamide], the pIC50 in data set [4] is 7.89. Besides, the half-life at 0.5 μM in data set [3] was at least 30 min. As to `NC(=O)[C@@H](c1ccccc1)[C@@H](CCC(F)(F)F)C(=O)N[C@H]1N=C(c2ccccc2)c2ccccc2N(c2ccccn2)C1=O` [Example 12, (2R,3R)—N-((3S)-2-Oxo-5-phenyl-1-(2-pyridinyl)-2,3-dihydro-1H-1,4-benzodiazepin-3-yl)-3-phenyl-2-(3,3,3-trifluoropropyl)succinamide], the pIC50 in data set [4] is 7.87. Take `COc1ccc(N2C(=O)[C@@H](NC(=O)[C@H](CCC(F)(F)F)[C@@H](C(N)=O)c3ccccc3)N=C(c3ccccc3)c3ccccc32)nc1` [Example 15, (2R,3R)—N-((3S)-1-(5-Methoxy-2-pyridinyl)-2-oxo-5-phenyl-2,3-dihydro-1H-1,4-benzodiazepin-3-yl)-3-phenyl-2-(3,3,3-trifluoropropyl)succinamide]: in data set [4], the pIC50 was 7.75. As to `COc1cccc(N2C(=O)[C@@H](NC(=O)[C@H](CCC(F)(F)F)[C@@H](C(N)=O)c3ccccc3)N=C(c3ccccc3)c3ccccc32)n1` [Example 16, (2R,3R)—N-((3S)-1-(6-Methoxy-2-pyridinyl)-2-oxo-5-phenyl-2,3-dihydro-1H-1,4-benzodiazepin-3-yl)-3-phenyl-2-(3,3,3-trifluoropropyl)succinamide], in data set [4], the negative logarithm of the IC50 (pIC50) was 7.79.

`COc1cccc2c1NC(=O)[C@@H](NC(=O)[C@H](CCC(F)(F)F)[C@@H](C(N)=O)c1ccccc1)N=C2c1ccccc1` [Example 21, (2R,3R)—N1-((S)-9-Methoxy-2-oxo-5-phenyl-2,3-dihydro-1H-benzo[e][1,4]diazepin-3-yl)-3-phenyl-2-(3,3,3-trifluoropropyl)succinamide]: the half-life at 0.5 μM in data set [3] was at least 30 min. Moreover, in data set [1] (Dose 40 (unit not given)), the “Antitumor Activity in TALL-1 (LCK), QD dosing” value turned out to be 2.7 LCK. For the same compound, in data set [1], the “antitumor activity … (PO)” value is on record as “showed antitumor activity”. Turning to `NC(=O)[C@@H](c1ccccc1)[C@@H](CCC(F)(F)F)C(=O)N[C@H]1N=C(c2ccccc2)c2ccccc2N(c2ccc(Cl)cn2)C1=O` [Example 22, (2R,3R)—N-((3S)-1-(5-Chloro-2-pyridinyl)-2-oxo-5-phenyl-2,3-dihydro-1H-1,4-benzodiazepin-3-yl)-3-phenyl-2-(3,3,3-trifluoropropyl)succinamide], the pIC50 in data set [2] is 7.94; in data set [4] it was 7.80. On the same counts, the results for `COc1cc(C#N)cc2c1NC(=O)[C@@H](NC(=O)[C@H](CCC(F)(F)F)[C@@H](C(N)=O)c1ccccc1)N=C2c1ccccc1` [Example 25, (2R,3R)—N1-((S)-7-Cyano-9-methoxy-2-oxo-5-phenyl-2,3-dihydro-1H-benzo[e][1,4]diazepin-3-yl)-3-phenyl-2-(3,3,3-trifluoropropyl)succinamide] are 7.72 and 7.62. For `NC(=O)[C@@H](c1ccccc1)[C@@H](CCC(F)(F)F)C(=O)N[C@H]1N=C(c2ccccc2)c2cccc(OC3CC3)c2NC1=O` [Example 26, (2R,3R)—N1-((S)-9-Cyclopropoxy-2-oxo-5-phenyl-2,3-dihydro-1H-benzo[e][1,4]diazepin-3-yl)-3-phenyl-2-(3,3,3-trifluoropropyl)succinamide], in data set [3], the half-life at 0.5 μM was at least 30 min. In addition, in data set [1] (Dose 10 (unit not given)), the “Antitumor Activity in TALL-1 (LCK), BID dosing” value worked out at 1.4 LCK. Further, in data set [1], the “antitumor activity … (PO)” value was “showed antitumor activity”. Take `Cc1cccc2c1NC(=O)[C@@H](NC(=O)[C@H](CCC(F)(F)F)[C@@H](C(N)=O)c1ccccc1)N=C2c1ccc(F)cc1` [Example 27, (2R,3R)—N1-((S)-5-(4-Fluorophenyl)-9-methyl-2-oxo-2,3-dihydro-1H-benzo[e][1,4]diazepin-3-yl)-3-phenyl-2-(3,3,3-trifluoropropyl)succinamide]: the pIC50 in data set [4] is 7.82. The half-life at 0.5 μM in data set [3] is at least 30 min. As to `Cc1cccc2c1NC(=O)[C@@H](NC(=O)[C@H](CCC(F)(F)F)[C@@H](C(N)=O)c1ccccc1)N=C2c1ccccc1` [Example 30, (2R,3R)—N1-((S)-9-Methyl-2-oxo-5-phenyl-2,3-dihydro-1H-benzo[e][1,4]diazepin-3-yl)-3-phenyl-2-(3,3,3-trifluoropropyl)succinamide], the half-life at 0.5 μM in data set [3] is at least 30 min. Also, the “Antitumor Activity in TALL-1 (LCK), BID dosing” value in data set [1] (Dose 20 (unit not given)) worked out at 1.2 LCK. Besides, the “antitumor activity … (PO)” value in data set [1] is on record as “showed antitumor activity”. Regarding `Cc1cccc2c1NC(=O)[C@@H](NC(=O)[C@H](CCC(F)(F)F)[C@@H](C(N)=O)c1ccccc1)N=C2c1cccc(Cl)c1` [Example 31, (2R,3R)—N1-((S)-5-(3-Chlorophenyl)-9-methyl-2-oxo-2,3-dihydro-1H-benzo[e][1,4]diazepin-3-yl)-3-phenyl-2-(3,3,3-trifluoropropyl)succinamide], the half-life at 0.5 μM in data set [3] is at least 30 min. Besides, in data set [1], the “antitumor activity … (PO)” value was “showed antitumor activity”. `Cc1cccc2c1NC(=O)[C@@H](NC(=O)[C@H](CCC(F)(F)F)[C@@H](C(N)=O)c1conc1C)N=C2c1cccc(Cl)c1` [Example 32, (2R,3R)—N1-((S)-5-(3-Chlorophenyl)-9-methyl-2-oxo-2,3-dihydro-1H-benzo[e][1,4]diazepin-3-yl)-3-(3-methylisoxazol-4-yl)-2-(3,3,3-trifluoropropyl)succinamide]: the half-life at 0.5 μM in data set [3] is at least 30 min. Same read-out and setting: with `Cc1cccc2c1NC(=O)[C@@H](NC(=O)[C@H](CCC(F)(F)F)[C@@H](C(N)=O)c1ccccc1)N=C2c1cccc(C(F)F)c1` [Example 34, (2R,3R)—N1-((S)-5-(3-(Difluoromethyl)phenyl)-9-methyl-2-oxo-2,3-dihydro-1H-benzo[e][1,4]diazepin-3-yl)-3-phenyl-2-(3,3,3-trifluoropropyl)succinamide] the figure was at least 30 min; with `NC(=O)[C@@H](c1ccccc1)[C@@H](CCC(F)(F)F)C(=O)N[C@H]1N=C(c2cccc(F)c2)c2cccc(OC3CC3)c2NC1=O` [Example 35, (2R,3R)—N1-((S)-9-Cyclopropoxy-5-(3-fluorophenyl)-2-oxo-2,3-dihydro-1H-benzo[e][1,4]diazepin-3-yl)-3-phenyl-2-(3,3,3-trifluoropropyl)succinamide], at least 30 min; with `COc1cccc2c1NC(=O)[C@@H](NC(=O)[C@H](CCC(F)(F)F)[C@@H](C(N)=O)c1ccc(Cl)cc1)N=C2c1ccccc1` [Example 36, (2R,3R)-3-(4-Chlorophenyl)-N1-((S)-9-methoxy-2-oxo-5-phenyl-2,3-dihydro-1H-benzo[e][1,4]diazepin-3-yl)-2-(3,3,3-trifluoropropyl)succinamide], at least 30 min.
